From US20180179596A1, “HISTONE MODIFICATION AGENTS FOR CANCER TREATMENT” (MOR RESEARCH APPLICATIONS LTD., priority 2015, published 2018)

Legend:
[1] = tested on: histone H3 acetylation in NALM6 cells overexpressing KANSL1; test: Histone H3 acetylation quantification in NALM6 cells overexpressing KANSL1 after MG-149 treatment; type: cell-based, human; conditions: 20 μM MG-149 added 24 h after KANSL1 plasmid transfection; histones extracted 48 h after transfection; FIG. 15
Procedure: NALM6 cell line was grown in RPMI (ATCC) supplemented with 10% fetal bovine serum (FBS) (Life Technologies), 0.1% L-Glutamine and 0.1% Penicillin Streptomycin (PS) (Life Technologies). Cells were cultured in a humidified atmosphere in an incubator at 37° C. with 5% CO2. Plasmid overexpression transfection was done by electroporation, using the Amaxa® Nucleofector technology (Lonza). Purified plasmid was sent to Maxi-Prep (Hy-Labs) and a concentration of 2 μg was taken for the transfection. As a negative control, a Green Fluorescent Protein (GFP) plasmid provided by the Amaxa kit was used.
Histones were extracted 48 h after transfection. Total histone protein concentration was adjusted to 400 ng/μl. Histone acetylation quantification was analyzed according to the manufacture's protocol (Epigentek).

[2] = tested on: MYST type of histone acetyltransferase (Tip60 and MOF); conditions: cited from earlier work

## CCCCCCCc1ccc(CCc2cccc(O)c2C(=O)O)cc1 [MG-149]
[1]
  acetylation of histone H3 (total H3 acetylation level): inhibited to near control levels
[2]
  selectivity toward MYST type histone acetyltransferase: selectivity toward the MYST type of histone acetyltransferase (Tip60 and MOF)
